{
  "source": "patent US4704451A",
  "about": "“Mitogenic peptides” (Washington University, priority 1985, dated 1987)",
  "key": {"macrophage-like cells": {"system": "macrophage-like cells", "assay": "Mitogenic activity for macrophage-like cells", "assay_type": "cell-based", "method": "(§1) The growth stimulation of macrophage-like cells can be determined by measuring the thymidine uptake of the cells at varying concentrations of the mitogenic peptides of the present invention. This was determined for several macrophage-like cell lines including J774, P388Dl, RAW and PU5. These are well-known murine cell lines available, for example, from the American Type Culture Collection, Rockville, Md."}, "[1]": {"system": "murine macrophage-like cell lines J774, P388D1, RAW and PU5", "assay": "Cell number (proliferation) of growth-arrested macrophage-like cells", "assay_type": "cell-based", "details": "24 hours after exposure of growth-arrested cells to 10^-8 M (optimal concentration)", "method": "(§2) ^3 [H]-TdR incorporation. Various cell lines were plated in Dulbeccos's Modified Eagle Medium (DMEM) containing 10% fetal calf serum (FCS) in […] humidified atmosphere at 37° C. at an initial density of 5×10^5 per well in 24 well disposable plastic plates (Falcon, Oxnard, Calif.). Arrest of DNA synthesis (i.e., G0 /G1) was achieved by incubating the cells for 48 hours in serum-free DMEM containing 0.1% bovine serum albumin (BSA). The cells were then exposed to the peptide or to various […], or to FCS for 48 hours. Enhanced thymidine incorporation was assessed following a 2 hour pulse of N-methyl^3 [H]-TdR (1 μCi/ml). The cells were washed ×3 in PBS (phosphate buffered saline, pH 7.4) at 4, precipitated with 10% trichloroacetic acid (30 min at 4) and the insoluble material extracted ×2 with ETOH:ET2 O (3:1 v/v). The precipitate was solubilized in N NaOH and aliquots withdrawn for protein determinations using a dye-binding assay (Bio Rad Labs., Richmond, Calif.) and liquid scintillation spectrometry.\nThe various cell lines employed in these tests were the murine macrophage-like cell lines J774, P388D1, RAW and PU5. The various […] used in these tests were platelet-derived growth factor (PDGF), epidermal growth factor (EGF), fibroblast growth factor (FGF), and nerve growth factor (NGF). […] The results are expressed as the mean of triplicate determinations."}, "[2]": {"system": "PU5 macrophage-like cell line", "assay": "3[H]-TdR incorporation in growth-arrested PU5 cells", "assay_type": "cell-based, murine", "details": "test (2), PU5, 10^-6 M (optimal concentration), mean ± s.e.m.", "method": "as §1\n(§3) ^3 [H]-TdR incorporation. Various cell lines were plated in Dulbeccos's Modified Eagle Medium (DMEM) containing 10% fetal calf serum (FCS) in […] humidified atmosphere at 37° C. at an initial density of 5×10^5 per well in 24 well disposable plastic plates (Falcon, Oxnard, Calif.). Arrest of DNA synthesis (i.e., G0 /G1) was achieved by incubating the cells for 48 hours in serum-free DMEM containing 0.1% bovine serum albumin (BSA). The cells were then exposed to the peptide or to various […], or to FCS for 48 hours. Enhanced thymidine incorporation was assessed following a 2 hour pulse of N-methyl^3 [H]-TdR (1 μCi/ml). […]\n(§4) The various cell lines employed in these tests were the murine macrophage-like cell lines J774, P388D1, RAW and PU5. […] The results are expressed as the mean of triplicate determinations."}, "[3]": {"system": "J774 murine macrophage-like cells", "assay": "3[H]-TdR incorporation in growth-arrested J774 cells", "assay_type": "cell-based", "method": "as §1, §2\nThe various cell lines employed in these tests were the murine macrophage-like cell lines J774, P388D1, RAW and PU5. The various […] used in these tests were platelet-derived growth factor (PDGF), epidermal growth factor (EGF), fibroblast growth factor (FGF), and nerve growth factor (NGF). For background information on these known polypeptide growth factors, see, for example, the recent review article by Kris is et al., Biotechnology, February 1985, pp. 135-140; and the comprehensive review in Hormonal Proteins and Peptides, Ed. by Choh Hao Li, Vol. 12, \"Growth Factors,\" Academic Press, 1984. EGF, NGF and FGF are commercially available from Biomedical Technologies, Cambridge, Mass. In a representative test, 24 hours following exposure of the growth-arrested cells to optimal concentrations of the peptide (i.e., 10^-8 M), cell numbers increased approximately two-fold from a control value of […] cells/culture well. […] The results are set forth in FIG. 2 and in Table I, below. In FIG. 2, the baseline tritiated thymidine (^3 [H]-TdR) incorporation in quiescent J774 cells was 5000 cpm±420 s.e.m. (standard error of the mean) per well. The results are expressed as the mean of triplicate determinations."}, "[4]": {"system": "P388D1 macrophage-like cell line", "assay": "3[H]-TdR incorporation in growth-arrested P388D1 cells", "assay_type": "cell-based, murine", "details": "test (2), P388D1, 10^-7 M (optimal concentration), mean ± s.e.m.", "method": "as §1, §3, §4"}, "[5]": {"system": "RAW macrophage-like cell line", "assay": "3[H]-TdR incorporation in growth-arrested RAW cells", "assay_type": "cell-based, murine", "details": "test (2), 10^-8 M (optimal concentration), mean ± s.e.m.", "method": "as §1, §3, §4"}, "[6]": {"details": "test (1), J774, >500 ng per well (highest concentration tested), mean ± s.e.m."}},
  "data": [
    {"substance": "H-NKNFTENDLL-OH [Peptide IV, H-Asn-Lys-Asn-Phe-Thr-Glu-Asn-Asp-Leu-Leu-OH]", "values": [
      {"measurement": "mitogenic activity for macrophage-like cells", "setting": "macrophage-like cells", "value": "inactive"}
    ]},
    {"substance": "H-TENDLL-OH [Peptide III, H-Thr-Glu-Asn-Asp-Leu-Leu-OH]", "values": [
      {"measurement": "mitogenic activity for macrophage-like cells", "setting": "macrophage-like cells", "value": "inactive"}
    ]},
    {"substance": "H-YPPWNKNFTENDLL-OH [Peptide I, H-Tyr-Pro-Pro-Trp-Asn-Lys-Asn-Phe-Thr-Glu-Asn-Asp-Leu-Leu-OH]", "values": [
      {"measurement": "increase of cell numbers over control", "setting": "[1]", "value": "approximately two-fold"},
      {"measurement": "3[H]-TdR Incorporation/mg Protein (% Increase)", "setting": "[2]", "value": "112± 4.4", "unit": "% Increase"},
      {"measurement": "3[H]-TdR Incorporation/mg Protein (% Increase)", "setting": "[3]; test (1), J774, 10^-8 M (optimal concentration), 48 h exposure, mean ± s.e.m. of triplicate cultures", "value": "140± 8.5", "unit": "% Increase"},
      {"measurement": "3[H]-TdR Incorporation/mg Protein (% Increase)", "setting": "[3]; test (2), J774, 10^-8 M (optimal concentration), mean ± s.e.m.", "value": "190± 12", "unit": "% Increase"},
      {"measurement": "3[H]-TdR Incorporation/mg Protein (% Increase)", "setting": "[4]", "value": "226± 22", "unit": "% Increase"},
      {"measurement": "3[H]-TdR Incorporation/mg Protein (% Increase)", "setting": "[5]", "value": "276± 18", "unit": "% Increase"}
    ]},
    {"substance": "epidermal growth factor [EGF]", "values": [
      {"measurement": "3[H]-TdR Incorporation/mg Protein (% Increase)", "setting": "[3]; [6]", "value": "5.2 ± 0.2", "unit": "% Increase"}
    ]},
    {"substance": "fibroblast growth factor [FGF]", "values": [
      {"measurement": "3[H]-TdR Incorporation/mg Protein (% Increase)", "setting": "[3]; [6]", "value": "0 ± 0.4", "unit": "% Increase"}
    ]},
    {"substance": "nerve growth factor [NGF]", "values": [
      {"measurement": "3[H]-TdR Incorporation/mg Protein (% Increase)", "setting": "[3]; [6]", "value": "0 ± 0.5", "unit": "% Increase"}
    ]},
    {"substance": "platelet-derived growth factor [PDGF]", "values": [
      {"measurement": "3[H]-TdR Incorporation/mg Protein (% Increase)", "setting": "[3]; [6]", "value": "9.4 ± 0.3", "unit": "% Increase"}
    ]}
  ]
}
